# Test results: ChEMBL document CHEMBL1122006, “Comparison of quantitative structure-activity relationships of the inhibition of leukemia cells in culture with the inhibition of dihydrofolate reductase from leukemia cells and other cell types” (1982)
# Test system: L5178Y
# Assay: Concentration required for inhibition of murine leukemia L5178Y cells
# Assay type: functional, Mus musculus
row,SMILES,Log 1/C
1,CC1(C)N=C(N)N=C(N)N1c1cccc(COc2cccc(NC(N)=O)c2)c1,8.18
2,COc1cccc(OCc2cccc(N3C(N)=NC(N)=NC3(C)C)c2)c1,8.02
3,CC1(C)N=C(N)N=C(N)N1c1cccc(OCCCCOc2cccc(C(F)(F)F)c2)c1,7.14
4,CC1(C)N=C(N)N=C(N)N1c1cccc(OCCCCOc2ccccc2)c1,6.97
5,CC1(C)N=C(N)N=C(N)N1c1cccc(OCCOc2ccccc2)c1,7.34
6,CC1(C)N=C(N)N=C(N)N1c1cccc(CNc2cc(C(N)=O)cc(C(N)=O)c2)c1,7.01
7,Cc1cccc(N2C(N)=NC(N)=NC2(C)C)c1,8.01
8,CC1(C)N=C(N)N=C(N)N1c1cccc(COc2cccc(CO)c2)c1,8.32
9,CC1(C)N=C(N)N=C(N)N1c1ccc(OCc2cccc(C(N)=O)c2)c(Cl)c1,7.53
10,CC1(C)N=C(N)N=C(N)N1c1cccc(OCc2ccccc2)c1,7.78
11,CC1(C)N=C(N)N=C(N)N1c1cccc(COc2ccccc2)c1,8.2
12,CC1(C)N=C(N)N=C(N)N1c1cccc(C(O)c2ccccc2)c1 (stereo not drawn),6.41
13,CC(C)(C)c1cccc(N2C(N)=NC(N)=NC2(C)C)c1,7.59
14,CC1(C)N=C(N)N=C(N)N1c1cccc(F)c1,7.94
15,CC(C)(C)c1cccc(OCc2cccc(N3C(N)=NC(N)=NC3(C)C)c2)c1,7.3
16,CC1(C)N=C(N)N=C(N)N1c1cccc(COc2cccc(Cl)c2)c1,8.1
17,CC(=O)c1cccc(N2C(N)=NC(N)=NC2(C)C)c1,6.96

row,SMILES,Log 1/C
1,CCCCCCCCCOc1cccc(N2C(N)=NC(N)=NC2(C)C)c1,6.93
2,CCc1cccc(OCc2cccc(N3C(N)=NC(N)=NC3(C)C)c2)c1,8.11
3,CC1(C)N=C(N)N=C(N)N1c1cccc(COc2cccc(NC(=N)S)c2)c1,8.08
4,CC1(C)N=C(N)N=C(N)N1c1cccc(Br)c1,8.42
5,CC1(C)N=C(N)N=C(N)N1c1cccc(C(N)=O)c1,6.1
6,CC(C)c1cccc(OCc2cccc(N3C(N)=NC(N)=NC3(C)C)c2)c1,8.13
7,CC1(C)N=C(N)N=C(N)N1c1cccc(I)c1,8.4
8,CC1(C)N=C(N)N=C(N)N1c1cccc(OCCOc2cccc(C(F)(F)F)c2)c1,7.37
9,CCOC(=O)c1cccc(N2C(N)=NC(N)=NC2(C)C)c1,8.13
10,Cc1cccc(OCc2cccc(N3C(N)=NC(N)=NC3(C)C)c2)c1,8.16
11,CCCCCCCCCCCCOc1cccc(N2C(N)=NC(N)=NC2(C)C)c1,6.41
12,CC1(C)N=C(N)N=C(N)N1c1cccc(OCc2ccc(Cl)c(Cl)c2)c1,7.15
13,CN(Cc1cnc2nc(N)nc(N)c2n1)c1ccc(C(=O)N[C@@H](CCC(=O)O)C(=O)O)cc1 [METHOTREXATE],8.89
14,CC1(C)N=C(N)N=C(N)N1c1cccc(COc2cccc(C#N)c2)c1,8.09
15,CC(=O)Nc1cccc(OCc2cccc(N3C(N)=NC(N)=NC3(C)C)c2)c1,8.66
16,CC1(C)N=C(N)N=C(N)N1c1cccc([N+](=O)[O-])c1,7.66
